Literature values in US6346264B1, “Supplement for restoring growth hormone levels” (International Health Products and Services Ltd., priority 1999, dated 2002).
Like-named read-outs stand apart in the source and are kept apart here.

Columns and labels:
[1] = tested on: hGH release; conditions: low doses in the region of 200 mg (Matteini)
[2] = 4 months, deficient adults
[3] = 6 months, growth hormone deficient patients
[4] = after six months of usage, without exercise
[5] = 202 patients, age 39-74, hGH injection

## N=C(N)NCCC[C@H](N)C(=O)O [arginine]
[1]
  hGH release: can elevate hGH release

## hGH: human growth hormone, medical name Somatotropin, produced in the anterior pituitary gland; available as injectable bio-synthetic product
[2]
  IGF-1 levels: normalized
  fat: reduced
  muscle thickness: increased
  renal plasma flow and glomerular filtration rates: raised from subnormal levels to levels comparable for their age
[5]
  increase in healing capacity: 71%
  individuals describing improvement in duration of penile erection: 62%
  individuals describing increase and improvement in sexual potency and frequency of sexual relations: 75%
  individuals with improved energy levels: 84%
  individuals with improved muscle strength: 88%
High frequency-low dose injections
  IGF-1 levels: elevated
[3]
  Insulin-like Growth Factor 1 (IGF-1): increase
  fat: reduction
  lean body mass: increase
  metabolic rate: increased
  plasma cholesterol: lowered
[4]
  average increase in lean muscle mass: 8%
  loss of fat: 14.4%
